How the values were obtained:
Assay in all cases: DGHM suspension test, microbicidal activity
Assay type in all cases: cell-based
[1] = tested on: Candida albicans ATCC 10231
Description: (§1) The microbicidal activity of the quanterary carboxylic acid alkanolamine ester salts used in accordance with the invention was tested against the following selected test germs:
(§2) The effectiveness of the compound to be tested was determined by the suspension test in accordance with the guidelines of the Deutsche Gesellschaft for Hygiene and Mikrobiologie (DGHM). Test solutions containing quatemary carboxylic acid alkanolamine ester salts in the quantities shown in the Tables of 50, 100, 200, 400 and 800 mg/l were prepared using water with a hardness of 17° dH and optionally isopropanol.
(§3) At room temperatures, quantities of 0.1 ml test germ suspension were pipetted into test tubes containing 10 ml of the test solutions described above and mixed. After various contact times of 5, 15, 30 and 60 minutes, 1 ml of material was taken from the test tubes by pipette and transferred to 9 ml inactivator solution (inactivators: 3.0% Tween, 0.3% lecithin, 0.1% histidine). After in activation for at least 5 and at most 30 minutes, the living germ count was determined by plating out onto casein peptone-soybean flour peptone (CaSo)-agar plates. Using a spiral plater, the inactivating mixture was directly plated out onto CaSo-agar. The samples were incubated for 24 to 72 hours at 37° C. and macroscopically evaluated for growth. The destruction time or the residual germ count was determined in this way. The germ count of an unchallenged water control is related to the germ count of the inactivated test solution taking the dilution into account. The higher the value, the better the microbicidal effect. The symbol < means that the logarithmic reductuon factor is below the indicated value or, in the case of the symbol >, above the indicated value. The abbreviation CU stands for “concentration used”.

[2] = tested on: Staphylococcus aureus ATCC 6538
Description: as §1, §2, §3

[3] = tested on: Pseudomonas aeruginosa ATCC 15442
Description: as §1, §2, §3

[4] = CU 50 mg/l, contact time 5 mins.
[5] = CU 50 mg/l, contact time 15 mins.
[6] = CU 50 mg/l, contact time 30 mins.
[7] = CU 50 mg/l, contact time 60 mins.
[8] = CU 100 mg/l, contact time 5 mins.
[9] = CU 100 mg/l, contact time 15 mins.
[10] = CU 100 mg/l, contact time 30 mins.
[11] = CU 100 mg/l, contact time 60 mins.
[12] = CU 200 mg/l, contact time 5 mins.
[13] = CU 200 mg/l, contact time 15 mins.
[14] = CU 200 mg/l, contact time 30 mins.
[15] = CU 200 mg/l, contact time 60 mins.
[16] = CU 400 mg/l, contact time 5 mins.
[17] = CU 400 mg/l, contact time 15 mins.
[18] = CU 400 mg/l, contact time 30 mins.
[19] = CU 400 mg/l, contact time 60 mins.
[20] = CU 800 mg/l, contact time 5 mins.
[21] = CU 800 mg/l, contact time 15 mins.
[22] = CU 800 mg/l, contact time 30 mins.
[23] = CU 800 mg/l, contact time 60 mins.

CCCCCCCC(=O)OCC[N+](C)(C)CCOC(=O)CCCCCCC.COS(=O)(=O)[O-] [Example 1, dimethyl diethanolammonium dicaprylic acid ester methosulfate]
logarithmic reduction factor [1, 4]: <0.50
logarithmic reduction factor [1, 5]: <0.37
logarithmic reduction factor [1, 6]: <0.35
logarithmic reduction factor [1, 7]: <0.36
logarithmic reduction factor [1, 8]: <0.50
logarithmic reduction factor [1, 9]: 0.41
logarithmic reduction factor [1, 10]: 0.60
logarithmic reduction factor [1, 11]: 0.70
logarithmic reduction factor [1, 12]: 1.53
logarithmic reduction factor [1, 13]: 2.53
logarithmic reduction factor [1, 14]: 2.91
logarithmic reduction factor [1, 15]: 3.61
logarithmic reduction factor [1, 16]: >4.5
logarithmic reduction factor [1, 17]: >4.37
logarithmic reduction factor [1, 18]: >4.35
logarithmic reduction factor [1, 19]: >4.36
logarithmic reduction factor [1, 20]: >4.50
logarithmic reduction factor [1, 21]: >4.37
logarithmic reduction factor [1, 22]: >4.35
logarithmic reduction factor [1, 23]: >4.36
logarithmic reduction factor [2, 4]: <1.32
logarithmic reduction factor [2, 5]: <1.71
logarithmic reduction factor [2, 6]: <1.23
logarithmic reduction factor [2, 7]: <1.32
logarithmic reduction factor [2, 8]: <1.32
logarithmic reduction factor [2, 9]: <1.71
logarithmic reduction factor [2, 10]: <1.23
logarithmic reduction factor [2, 11]: <1.32
logarithmic reduction factor [2, 12]: <1.32
logarithmic reduction factor [2, 13]: <1.71
logarithmic reduction factor [2, 14]: <1.23
logarithmic reduction factor [2, 15]: <1.32
logarithmic reduction factor [2, 16]: <1.32
logarithmic reduction factor [2, 17]: <1.1
logarithmic reduction factor [2, 18]: 1.95
logarithmic reduction factor [2, 19]: 3.54
logarithmic reduction factor [2, 20]: <1.32
logarithmic reduction factor [2, 21]: <3.59
logarithmic reduction factor [2, 22]: <3.96
logarithmic reduction factor [2, 23]: >5.32
logarithmic reduction factor [3, 4]: <1.83
logarithmic reduction factor [3, 5]: <1.47
logarithmic reduction factor [3, 6]: <1.55
logarithmic reduction factor [3, 7]: <1.56
logarithmic reduction factor [3, 8]: <1.83
logarithmic reduction factor [3, 9]: <1.47
logarithmic reduction factor [3, 10]: <1.55
logarithmic reduction factor [3, 11]: <1.56
logarithmic reduction factor [3, 12]: <1.83
logarithmic reduction factor [3, 13]: <1.47
logarithmic reduction factor [3, 14]: <1.55
logarithmic reduction factor [3, 15]: <1.56
logarithmic reduction factor [3, 16]: <1.83
logarithmic reduction factor [3, 17]: <1.47
logarithmic reduction factor [3, 18]: 3.22
logarithmic reduction factor [3, 19]: 4.41
logarithmic reduction factor [3, 20]: >5.83
logarithmic reduction factor [3, 21]: >5.47
logarithmic reduction factor [3, 22]: >5.55
logarithmic reduction factor [3, 23]: >5.56

CCCCCCCCCCCC(=O)OCC[N+](C)(CCO)CCOC(=O)CCCCCCCCCCC.COS(=O)(=O)[O-] [Example 5, methyl triethanolammonium dilauric acid ester methosulfate]
logarithmic reduction factor [2, 4]: <1.79
logarithmic reduction factor [2, 5]: <1.73
logarithmic reduction factor [2, 6]: 2.53
logarithmic reduction factor [2, 7]: 3.88
logarithmic reduction factor [2, 8]: <1.79
logarithmic reduction factor [2, 9]: 2.38
logarithmic reduction factor [2, 10]: 3.80
logarithmic reduction factor [2, 11]: 5.21
logarithmic reduction factor [2, 12]: 2.52
logarithmic reduction factor [2, 13]: 4.25
logarithmic reduction factor [2, 14]: >5.75
logarithmic reduction factor [2, 15]: >5.86
logarithmic reduction factor [2, 16]: 2.70
logarithmic reduction factor [2, 17]: >5.73
logarithmic reduction factor [2, 18]: >5.75
logarithmic reduction factor [2, 19]: >5.86
logarithmic reduction factor [2, 20]: 3.85
logarithmic reduction factor [2, 21]: >5.73
logarithmic reduction factor [2, 22]: >5.75
logarithmic reduction factor [2, 23]: >5.86
logarithmic reduction factor [3, 4]: <1.85
logarithmic reduction factor [3, 5]: <1.79
logarithmic reduction factor [3, 6]: <1.71
logarithmic reduction factor [3, 7]: <1.51
logarithmic reduction factor [3, 8]: <1.85
logarithmic reduction factor [3, 9]: <1.79
logarithmic reduction factor [3, 10]: <1.71
logarithmic reduction factor [3, 11]: <1.81
logarithmic reduction factor [3, 12]: <1.85
logarithmic reduction factor [3, 13]: <1.79
logarithmic reduction factor [3, 14]: <1.71
logarithmic reduction factor [3, 15]: <1.81
logarithmic reduction factor [3, 16]: <1.85
logarithmic reduction factor [3, 17]: <1.79
logarithmic reduction factor [3, 18]: <1.71
logarithmic reduction factor [3, 19]: 3.84
logarithmic reduction factor [3, 20]: <1.85
logarithmic reduction factor [3, 21]: 3.43
logarithmic reduction factor [3, 22]: 3.95
logarithmic reduction factor [3, 23]: 4.40

— US6420330B1, “Use of quaternary carboxylic acid alkanolamine ester salts as microbicide agents” (Cognis Deutschland GmbH, priority 1997, dated 2002)
